# Test system: ATXN3-HiBiT protein
# Test: ATXN3 Total Protein Assay (Kelly-ATXN3-HiBiT luminescence)
# Assay type: cell-based
# Settings: Kelly-ATXN3-HiBiT cells, 48 h after addition of compound
# From the text: Example 36: ATXN3 Total Protein Assay
# To monitor ATXN3 protein levels by luminescence, a Kelly-ATXN3-HiBiT cell line with homozygous knock-in of HiBiT at the C-terminus of the endogenous ATXN3 gene was used (knock-in of the HiBiT-tag coding sequence SEQ ID NO. 14: 5′[…]3′ into exon 11 of ATXN3-position 1114 of ATXN3 RefSeq NM_004993.6). Manipulations of the Kelly-ATXN3-HiBiT cell line that result in downregulation of the ATXN3-HiBiT protein (through modulation of ATXN3-HiBiT pre-mRNA splicing) can be followed by monitoring the luminescence signal of the HiBiT tag using the Nano Glo HiBiT Lytic Detection System (Promega, #N3050). Kelly-ATXN3-HiBiT cells were maintained in RPMI 1640 w/Glutamax (Gibco, #61870010), 10% FBS (Sigma Aldrich, #F8687), 1% Penicillin/Streptomycin (Gibco, #15140-122) at 37° C., 5% CO2. To assess HiBiT-luminescence signal upon compound treatment, 2000 Kelly-ATXN3-HiBiT cells were seeded per well in 384 plate format. Compounds were added 24 h after seeding. ATXN3-HiBiT-luminescence signal was read out 48 h after addition of the compound using the Nano Glo HiBiT Lytic Detection System (Promega, #N3050) according to the manufacturer's instructions. To control for cell viability, an identically prepared sister plate was read out with the CellTiter-Glo® 2.0 Assay (Promega, #G9243) according to the manufacturer's instructions. Fold changes of ATXN3-HiBiT-luminescence and of CellTiter-Glo viability signals were calculated relative to a DMSO control condition.
row,Structure (SMILES),EC50
1,"Cc1c(CC(N)CC2(F)CC2)oc2c(NCc3cccs3)cc(Cl)nc12 (centres unmarked) [Compound 67, 2-[2-amino-3-(1-fluorocyclopropyl)propyl]-5-chloro-3-methyl-7-thenylamino-1-oxa-4-azaindene]",101 to 500 nM
2,"Cc1c(C[C@@H](N)CC2(F)CC2)oc2c(NCc3cccs3)cc(Cl)nc12 [Compound 68, 2-[(R)-2-amino-3-(1-fluorocyclopropyl)propyl]-5-chloro-3-methyl-7-thenylamino-1-oxa-4-azaindene]",501 to 5000 nM
3,"Cc1c(C[C@H](N)CC2(F)CC2)oc2c(NCc3cccs3)cc(Cl)nc12 [Compound 69, 2-[(S)-2-amino-3-(1-fluorocyclopropyl)propyl]-5-chloro-3-methyl-7-thenylamino-1-oxa-4-azaindene]",0.01 to 100 nM
4,"Cc1c(CC(N)CC2(F)COC2)oc2c(NCc3cccs3)cc(Cl)nc12 (centres unmarked) [Compound 73, 2-[2-amino-3-(3-fluoro-3-oxetanyl)propyl]-5-chloro-3-methyl-7-thenylamino-1-oxa-4-azaindene]",10000 to 40000 nM
5,"N[C@@H](Cc1oc2c(NCc3cccs3)cc(Cl)nc2c1Br)CC1(F)CC1 [Compound 86, 2-[(S)-2-amino-3-(1-fluorocyclopropyl)propyl]-3-bromo-5-chloro-7-thenylamino-1-oxa-4-azaindene]",501 to 5000 nM
6,"N[C@H](Cc1oc2c(NCc3cccs3)cc(Cl)nc2c1Br)CC1(F)CC1 [Compound 87, 2-[(R)-2-amino-3-(1-fluorocyclopropyl)propyl]-3-bromo-5-chloro-7-thenylamino-1-oxa-4-azaindene]",101 to 500 nM
7,"COC1([C@H](N)Cc2oc3c(NCc4cccs4)cc(Cl)nc3c2Br)CC1 [Compound 144, 2-[(R)-2-amino-2-(1-methoxycyclopropyl)ethyl]-3-bromo-5-chloro-7-thenylamino-1-oxa-4-azaindene]",10000 to 40000 nM
8,"N[C@H](Cc1oc2c(NCc3cccs3)cc(Cl)nc2c1Br)C[C@@H]1CC1(F)F [Compound 183, 2-{(S)-3-[(R)-2,2-difluorocyclopropyl]-2-aminopropyl}-3-bromo-5-chloro-7-thenylamino-1-oxa-4-azaindene]",101 to 500 nM
9,"N[C@H](Cc1oc2c(NCc3cccs3)cc(Cl)nc2c1Br)C[C@H]1CC1(F)F [Compound 184, 2-{(S)-3-[(S)-2,2-difluorocyclopropyl]-2-aminopropyl}-3-bromo-5-chloro-7-thenylamino-1-oxa-4-azaindene]",101 to 500 nM
10,"C[C@H](N)C(F)(F)c1oc2c(NCc3nccs3)cc(Cl)nc2c1Br [Compound 223, 2-[(S)-2-amino-1,1-difluoropropyl]-3-bromo-5-chloro-7-{[(1,3-thiazol-2-yl)methyl]amino}-1-oxa-4-azaindene]",101 to 500 nM
11,"N[C@@H](CO)C(F)(F)c1oc2c(NCc3nccs3)cc(Cl)nc2c1Br [Compound 224, (S)-2-amino-3-(3-bromo-5-chloro-7-{[(1,3-thiazol-2-yl)methyl]amino}-1-oxa-4-aza-2-indenyl)-3,3-difluoro-1-propanol]",501 to 5000 nM
12,"[2H][C@@](C)(N)Cc1oc2c(NCc3cccs3)cc(Cl)nc2c1Br [Compound 229, 2-[(S)-2-amino(2-2H)propyl]-3-bromo-5-chloro-7-thenylamino-1-oxa-4-azaindene]",0.01 to 100 nM
13,"[2H]C([2H])([2H])C(N)Cc1oc2c(NCc3cccs3)cc(Cl)nc2c1Br (centres unmarked) [Compound 230, 2-[2-amino(3,3,3-^2H3)propyl]-3-bromo-5-chloro-7-thenylamino-1-oxa-4-azaindene]",0.01 to 100 nM
14,"[2H]C([2H])([2H])[C@H](N)Cc1oc2c(NCc3cccs3)cc(Cl)nc2c1Br [Compound 231, 2-[(S)-2-amino(3,3,3-2H3)propyl]-3-bromo-5-chloro-7-thenylamino-1-oxa-4-azaindene]",0.01 to 100 nM
15,"[2H]C([2H])([2H])[C@@H](N)Cc1oc2c(NCc3cccs3)cc(Cl)nc2c1Br [Compound 232, 2-[(R)-2-amino(3,3,3-^2H3)propyl]-3-bromo-5-chloro-7-thenylamino-1-oxa-4-azaindene]",101 to 500 nM
16,"[2H]C([2H])(Nc1cc(Cl)nc2c(Br)c(C[C@]([2H])(C)N)oc12)c1cccs1 [Compound 234, 2-[(S)-2-amino(2-2H)propyl]-3-bromo-5-chloro-7-{[(2-thienyl)(^2H2)methyl]amino}-1-oxa-4-azaindene]",0.01 to 100 nM
17,"N#CC[C@H](N)Cc1oc2c(NCc3ccco3)cc(Cl)nc2c1Br [Compound 235, (S)-3-amino-4-[3-bromo-5-chloro-7-(furfurylamino)-1-oxa-4-aza-2-indenyl]butyronitrile]",501 to 5000 nM
18,"[2H]C([2H])(Nc1cc(Cl)nc2c(Br)c(C[C@@H](N)COC(F)(F)F)oc12)c1cccs1 [Compound 246, 2-[(R)-2-amino-3-trifluoromethoxypropyl]-3-bromo-5-chloro-7-{[(2-thienyl)(^2H2)methyl]amino}-1-oxa-4-azaindene]",101 to 500 nM
19,"[2H]C([2H])([2H])OC[C@H](N)Cc1oc2c(NC([2H])([2H])c3cccs3)cc(Cl)nc2c1Br [Compound 249, 2-[(R)-2-amino-3-(^2H3)methoxypropyl]-3-bromo-5-chloro-7-{[(2-thienyl)(^2H2)methyl]amino}-1-oxa-4-azaindene]",0.01 to 100 nM
20,"[2H]C([2H])([2H])OC[C@H](N)Cc1oc2c(NCc3ccco3)cc(Cl)nc2c1Cl [Compound 265, 2-[(R)-2-amino-3-(^2H3)methoxypropyl]-3,5-dichloro-7-(furfurylamino)-1-oxa-4-azaindene]",0.01 to 100 nM
21,"[2H][C@@](C)(N)Cc1oc2c(NCc3cccs3)cc(Cl)nc2c1C#C [Compound 268, 2-[(S)-2-amino(2-^2H)propyl]-5-chloro-3-ethynyl-7-thenylamino-1-oxa-4-azaindene]",0.01 to 100 nM
22,"[2H]C([2H])([2H])C(N)Cc1oc2c(NCc3cccs3)cc(Cl)nc2c1C#C (centres unmarked) [Compound 269, 2-[2-amino(3,3,3-^2H3)propyl]-5-chloro-3-ethynyl-7-thenylamino-1-oxa-4-azaindene]",0.01 to 100 nM

# The next lines start with the values.
row,EC50,Structure (SMILES)
1,10000 to 40000 nM,"Cc1c(CC(N)CC2COC2)oc2c(NCc3cccs3)cc(Cl)nc12 (centres unmarked) [Compound 70, 2-[2-amino-3-(3-oxetanyl)propyl]-5-chloro-3-methyl-7-thenylamino-1-oxa-4-azaindene]"
2,0.01 to 100 nM,"N[C@@H](CCOC(F)(F)F)Cc1oc2c(NCc3cccs3)cc(Cl)nc2c1Br [Compound 146, 2-[(S)-2-amino-4-trifluoromethoxybutyl]-3-bromo-5-chloro-7-thenylamino-1-oxa-4-azaindene]"
3,0.01 to 100 nM,"COCC[C@H](N)Cc1oc2c(NCc3cccs3)cc(Cl)nc2c1Br [Compound 147, 2-[(S)-2-amino-4-methoxybutyl]-3-bromo-5-chloro-7-thenylamino-1-oxa-4-azaindene]"
4,501 to 5000 nM,"N#CC[C@H](N)Cc1oc2c(NCc3cccs3)cc(Cl)nc2c1Br [Compound 155, (S)-3-amino-4-(3-bromo-5-chloro-7-thenylamino-1-oxa-4-aza-2-indenyl)butyronitrile]"
5,0.01 to 100 nM,"N[C@@H](COCC(F)F)Cc1oc2c(NCc3cccs3)cc(Cl)nc2c1Br [Compound 182, 2-[(R)-2-amino-3-(2,2-difluoroethoxy)propyl]-3-bromo-5-chloro-7-thenylamino-1-oxa-4-azaindene]"
6,0.01 to 100 nM,CC(=O)NC[C@H](N)Cc1oc2c(NCc3cccs3)cc(Cl)nc2c1Br [Compound 219]
7,0.01 to 100 nM,"[2H]C([2H])([2H])OC[C@H](N)Cc1oc2c(NCc3cccs3)cc(Cl)nc2c1C#C [Compound 233, 2-[(R)-2-amino-3-(2H3)methoxypropyl]-5-chloro-3-ethynyl-7-thenylamino-1-oxa-4-azaindene]"
8,0.01 to 100 nM,"C#Cc1c(C[C@@H](N)COC2CC2)oc2c(NCc3cccs3)cc(Cl)nc12 [Compound 244, 2-[(R)-2-amino-3-cyclopropoxypropyl]-5-chloro-3-ethynyl-7-thenylamino-1-oxa-4-azaindene]"
9,0.01 to 100 nM,"C#Cc1c(C[C@@H](N)CO)oc2c(NCc3cccs3)cc(Cl)nc12 [Compound 248, (R)-2-amino-3-(5-chloro-3-ethynyl-7-thenylamino-1-oxa-4-aza-2-indenyl)-1-propanol]"
10,0.01 to 100 nM,"[2H]C([2H])([2H])OC[C@H](N)Cc1oc2c(NC([2H])([2H])c3cccs3)cc(Cl)nc2c1C#C [Compound 250, 2-[(R)-2-amino-3-(^2H3)methoxypropyl]-5-chloro-3-ethynyl-7-{[(2-thienyl)(^2H2)methyl]amino}-1-oxa-4-azaindene]"
11,0.01 to 100 nM,"[2H]C([2H])([2H])OC[C@H](N)Cc1oc2c(NCc3cccs3)cc(Cl)nc2c1Cl [Compound 264, 2-[(R)-2-amino-3-(^2H3)methoxypropyl]-3,5-dichloro-7-thenylamino-1-oxa-4-azaindene]"
12,0.01 to 100 nM,"C#Cc1c(C[C@@H](N)CCOC)oc2c(NCc3cccs3)cc(Cl)nc12 [Compound 266, 2-[(S)-2-amino-4-methoxybutyl]-5-chloro-3-ethynyl-7-thenylamino-1-oxa-4-azaindene]"
13,101 to 500 nM,"[2H]C([2H])([2H])OCC[C@H](N)Cc1oc2c(NCc3cccs3)cc(Cl)nc2c1Br [Compound 267, 2-[(S)-2-amino-4-(^2H3)methoxybutyl]-3-bromo-5-chloro-7-thenylamino-1-oxa-4-azaindene]"
